“Also recorded” adds a separate entry of the source.
How the values were obtained:
[1] = target: MET (Homo sapiens, UniProt P08581); conditions: nanomolar concentrations; cited from earlier work
[2] = system: GTL-16 gastric carcinoma cells; conditions: cited from earlier work
[3] = system: MLP-29 cells; conditions: cited from earlier work
[4] = system: NIH3T3 fibroblasts; conditions: cited from earlier work
[5] = system: MET autophosphorylation (Y1234/1235) in Amp+ cells; test: Immunoblotting of MET autophosphorylation; type: cell-based, human; conditions: 3 h, 50 nM
[6] = system: Amp+ cells; test: Apoptosis induction assay (cleaved caspase-3, PARP cleavage); type: cell-based, human; conditions: 72 h, 1 μM (caspase-3), 500 nM (PARP)
Procedure: (§1) Cells are costained with DAPI to show nuclei.
(§2) Cells were plated on coverslips in 12-well dishes and grown to approximately 75% confluency in 10% serum. […] After 72 h the cells were fixed with 4% paraformaldehyde for 20 minutes. Permeabilization with 1% NP40 for 5 minutes was followed by blocking with 3% BSA for 30 minutes. The coverslips were then incubated overnight at 4° C. with cleaved caspase-3 antibody at 1:200 dilution. The next day, the coverslips were washed 3 times with PBS and incubated with a secondary antibody (goat anti-rabbit FITC-conjugated) for 1 h at 1:250 dilution. Following 5 washes with PBS, coverslips were mounted in Vectashield mounting medium containing DAPI (Vector Laboratories; Burlingame, Calif.).
(§3) Apoptosis Induction Assay. […] After 72 h, cells were fixed with 4% paraformaldehyde for 20 min, permeabilized by using 1% Nonidet P-40 for 5 min, and blocked with 3% BSA for 30 min. The coverslips were then incubated overnight at 4° C. with cleaved caspase-3 antibody at 1:200 dilution. The next day, the coverslips were washed three times with PBS and incubated with a secondary antibody (goat anti-rabbit FITC-conjugated) for 1 h at 1:250 dilution. After five washes with PBS, coverslips were mounted in Vectashield mounting medium containing DAPI (Vector Laboratories), and staining was visualized by fluorescent microscopy.

[7] = system: Amp− cells; test: as above; type: cell-based, human; conditions: 72 h, identical conditions
Procedure: as §1, §2, §3

[8] = system: Amp+ cells; test: Viability of gastric cancer cell lines with MET amplification (MTT); type: cell-based, human; conditions: 5 of 5 Amp+ gastric cancer cell lines; 96 h
[9] = system: TMK-1; test: MTT viability assay, gastric cancer cell line; type: cell-based; conditions: Homo sapiens, TMK-1, 96 h
Procedure: (§4) Cells were plated in 96-well plate in medium containing 4% fetal bovine serum at approximately 4000 cells/well. […] Cell viability was measured 96 h later using the MTT assay. Briefly, 10 ul of 5 mg/ml MTT (Thiazolyl blue) solution was added to each well and incubated for about 2 hours at 37° C. For adherent cell lines, the media was removed from each well and the resultant MTT formazan was solubilized in 100 ul of DMSO. For suspension cell lines, the MMT formazan was solubilized by direct addition of 100 ul of acidic isopropanol (0.1N HCl) to each well. The results were quantitated spectrophotometrically using a test wavelength of 570 nm and a reference wavelength of 630 nm.
(§5) Cellular Proliferation and Viability Assays. […] For quantitation of cellular proliferation, cells were fixed at appropriate time points in 4% paraformaldehyde, and all plates were stained simultaneously by using the fluorescent nucleic acid stain SYTO60 (Molecular Probes) at 1:8,000 dilution in PBS. Quantitation was done by measuring the […] at 700 nm by using the Odyssey Imaging System (LI-COR, Lincoln, Nebr.). The relative cell number was obtained by normalizing treated samples to matched untreated specimens. For quantitation of cell viability, cultures were stained after 4 days by using the MTT assay. Briefly, 10 μl of 5 mg/ml MTT (Thiazolyl blue) solution was added to each well and incubated for 2 h at 37° C. For adherent cell lines, the media was removed from each well, and the resultant MTT formazan was solubilized in 100 μl of DMSO. For nonadherent cell lines, the MTT formazan was solubilized by direct addition of 100 μl of acidic isopropanol (0.1 N HCl) to each well. The results were quantitated spectrophotometrically by using a test wavelength of 570 nm and a reference wavelength of 630 nm.

[10] = system: KATO III; test: MTT viability assay, gastric cancer cell line; type: cell-based; conditions: Homo sapiens, 96 h
Procedure: as §4, §5

[11] = system: HSC39; test: MTT viability assay, gastric cancer cell line; type: cell-based; conditions: Homo sapiens, 96 h
Procedure: as §4, §5

[12] = system: MKN1; test: MTT viability assay, gastric cancer cell line; type: cell-based; conditions: Homo sapiens, MKN-1, 96 h
Procedure: as §4, §5

[13] = system: SNU-5; test: MTT viability assay, gastric cancer cell line; type: cell-based; conditions: Homo sapiens, SNU-5, 96 h
Procedure: as §4, §5

[14] = system: GTL16; test: MTT viability assay, gastric cancer cell line; type: cell-based; conditions: Homo sapiens, GTL 16, 96 h
Procedure: as §4, §5

[15] = system: MKN45; test: MTT viability assay, gastric cancer cell line; type: cell-based; conditions: Homo sapiens, MKN-45, 96 h
Procedure: as §4, §5

[16] = system: KATO II; test: MTT viability assay, gastric cancer cell line; type: cell-based; conditions: Homo sapiens, 96 h
Procedure: as §4, §5

[17] = system: AGS; test: MTT viability assay, gastric cancer cell line; type: cell-based; conditions: Homo sapiens, 96 h
Procedure: as §4, §5

[18] = system: Hs738T; test: MTT viability assay, gastric cancer cell line; type: cell-based; conditions: Homo sapiens, 96 h
Procedure: as §4, §5

[19] = system: MKN28; test: MTT viability assay, gastric cancer cell line; type: cell-based; conditions: Homo sapiens, MKN-28, 96 h
Procedure: as §4, §5

[20] = system: MKN74; test: MTT viability assay, gastric cancer cell line; type: cell-based; conditions: Homo sapiens, MKN-74, 96 h
Procedure: as §4, §5

[21] = system: MKN7; test: MTT viability assay, gastric cancer cell line; type: cell-based; conditions: Homo sapiens, MKN-7, 96 h
Procedure: as §4, §5

[22] = system: Hs746T; test: MTT viability assay, gastric cancer cell line; type: cell-based; conditions: Homo sapiens, 96 h
Procedure: as §4, §5

[23] = system: N87; test: MTT viability assay, gastric cancer cell line; type: cell-based; conditions: Homo sapiens, 96 h
Procedure: as §4, §5

[24] = system: SNU-1; test: MTT viability assay, gastric cancer cell line; type: cell-based; conditions: Homo sapiens, SNU1, 96 h
Procedure: as §4, §5

[25] = system: SNU-16; test: MTT viability assay, gastric cancer cell line; type: cell-based; conditions: Homo sapiens, SNU-16, 96 h
Procedure: as §4, §5

[26] = system: Amp− cells; test: Growth curve (SYTO60 staining); type: cell-based, human; conditions: 1 μM, up to 6 days
[27] = system: MKN45; test: Drug-sensitivity screen of 40 human cancer cell lines (DNA staining, 3 days); type: cell-based; conditions: MKN45 gastric cancer cell line
Procedure: (§6) Cells were cultured and analyzed in triplicate within microtiter plates. Cell numbers were quantitated by DNA staining, 3 days after addition of various concentrations of drugs and expressed as a fraction of matched untreated cultures. For each drug concentration, cell lines with relative drug sensitivity (<50% of untreated control growth) are shown in darkest staining, intermediate sensitivity (50-75%) in […], and drug insensitivity (>75%) in intermediate shading.
as §5

[28] = system: platelet-derived growth factor receptor; conditions: cited from earlier work
[29] = system: Amp+ cells; test: Growth curve (SYTO60 staining); type: cell-based, human; conditions: 1 μM, up to 6 days
[30] = system: ERK1/2, AKT, STAT3, or FAK in Amp− cells; test: Immunoblotting of downstream effector phosphorylation; type: cell-based, human; conditions: 3 h
Procedure: (§7) FIG. 3: Constitutive activation of MET and activation of downstream signaling pathways in Amp^+ cells. (FIG. 3A) MET is constitutively activated in the Amp^+ cells. […] (FIG. 3B) Effect of HGF on MET activation in Amp^+ and Amp^− cells (representative immunoblots). Cells were serum-starved for 24 h and treated with 40 ng/ml HGF for 10 minutes. Phosphorylation of MET (Y1234/1235) is unaltered in Amp^+ cells treated with HGF, but it is induced by HGF in Amp^− cells (total MET control).
as §1
(§8) Cells were either directly lysated in 2× sample buffer or in RIPA buffer (150 mM NaCl, 50 mM Tris pH 8.0, 1% NP40, 0.5% DOC, 0.1% SDS, 1 mM EDTA, 10 mM NaF, 1 mM Na-orthovanadate, 1× protease inhibitor cocktail (Roche; Indianapolis, Ind.)). Cell lysates were sonicated for 10 sec and cleared by centrifugation at 14,000 rpm for 10 min at 4° C. Cleared lysates were boiled in sample buffer and loaded onto 10% SDS-PAGE gel. For immunoblotting analysis, proteins were transferred onto Immobilon PVDF membrane (Millipore; Bedford, Mass.) and visualized with Western Lightning Plus chemiluminescence kit (Perkin Elmer; Boston, Mass.).

[31] = system: ERK1/2, AKT, STAT3, and FAK in Amp+ cells; test: as above; type: cell-based, human; conditions: 3 h, 50 nM
Procedure: as §7, §1, §8

[32] = system: Amp− cells; test: Viability of gastric cancer cell lines without MET amplification (MTT); type: cell-based, human; conditions: 12 of 12 Amp− gastric cancer cell lines; 96 h
[33] = system: NCI-H1650; test: Drug-sensitivity screen of 40 human cancer cell lines (DNA staining, 3 days); type: cell-based; conditions: NCI-H1650 (EGFR del E746-A750), tested 100 nM to 10 μM
Procedure: as §6, §5

[34] = system: NCI-H1975; test: as above; type: cell-based; conditions: NCI-H1975 (EGFR L858R and T790M)
Procedure: as §6, §5

Sequence of MET (P08581 25-1390): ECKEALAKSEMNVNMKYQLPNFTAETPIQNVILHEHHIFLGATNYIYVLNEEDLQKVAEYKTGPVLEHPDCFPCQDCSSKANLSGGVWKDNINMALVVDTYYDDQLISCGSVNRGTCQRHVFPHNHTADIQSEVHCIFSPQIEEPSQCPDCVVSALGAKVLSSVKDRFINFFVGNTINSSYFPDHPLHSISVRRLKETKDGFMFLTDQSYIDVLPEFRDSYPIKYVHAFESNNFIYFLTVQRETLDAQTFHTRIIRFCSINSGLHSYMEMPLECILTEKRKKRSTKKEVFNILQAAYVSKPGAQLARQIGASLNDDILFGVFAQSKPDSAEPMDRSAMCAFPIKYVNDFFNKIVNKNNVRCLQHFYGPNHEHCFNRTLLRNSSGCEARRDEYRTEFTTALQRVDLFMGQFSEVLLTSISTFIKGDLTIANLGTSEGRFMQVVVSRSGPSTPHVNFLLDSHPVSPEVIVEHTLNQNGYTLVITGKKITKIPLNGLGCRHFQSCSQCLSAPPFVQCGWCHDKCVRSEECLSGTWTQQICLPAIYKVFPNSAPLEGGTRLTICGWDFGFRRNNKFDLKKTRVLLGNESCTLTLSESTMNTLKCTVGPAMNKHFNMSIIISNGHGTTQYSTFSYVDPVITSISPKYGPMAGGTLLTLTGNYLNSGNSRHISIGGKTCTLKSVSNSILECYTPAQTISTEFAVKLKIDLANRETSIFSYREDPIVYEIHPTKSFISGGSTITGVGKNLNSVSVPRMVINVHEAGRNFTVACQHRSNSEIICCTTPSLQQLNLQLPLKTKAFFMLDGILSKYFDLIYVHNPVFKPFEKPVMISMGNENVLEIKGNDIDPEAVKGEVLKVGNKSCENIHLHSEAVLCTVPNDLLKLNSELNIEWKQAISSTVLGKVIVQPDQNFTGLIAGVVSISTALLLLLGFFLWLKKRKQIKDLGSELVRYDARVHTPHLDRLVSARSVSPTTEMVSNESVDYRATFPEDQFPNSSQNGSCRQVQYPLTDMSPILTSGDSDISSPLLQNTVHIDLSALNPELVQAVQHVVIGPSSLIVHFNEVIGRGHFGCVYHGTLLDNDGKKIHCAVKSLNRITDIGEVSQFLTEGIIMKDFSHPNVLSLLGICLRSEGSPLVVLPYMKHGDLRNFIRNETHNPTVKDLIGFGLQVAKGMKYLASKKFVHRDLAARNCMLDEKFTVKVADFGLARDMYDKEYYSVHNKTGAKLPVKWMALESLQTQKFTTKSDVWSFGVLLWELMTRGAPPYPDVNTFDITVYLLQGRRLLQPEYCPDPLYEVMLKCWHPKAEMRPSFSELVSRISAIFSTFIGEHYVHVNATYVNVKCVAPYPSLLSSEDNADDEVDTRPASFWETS

COC(=O)[C@@]1(O)C[C@H]2O[C@]1(C)n1c3ccccc3c3c4c(c5c6ccccc6n2c5c31)C(=O)NC4 [K252a]
Met autophosphorylation [1]: inhibits Met autophosphorylation | Met-driven proliferation [2]: reduces Met-driven proliferation | HGF-mediated scattering [3]: prevents HGF-mediated scattering | Met mediated transformation [4]: reverses Met mediated transformation

Cc1[nH]c(/C=C2\C(=O)Nc3ccc(S(=O)(=O)Cc4c(Cl)cccc4Cl)cc32)c(C)c1C(=O)N1CCC[C@@H]1CN1CCCC1 [PHA-665752, (3Z)-5-[(2,6-dichlorobenzyl)sulfonyl]-3-[(3,5-dimethyl-4-{[(2R)-2-(pyrrolidin-1-ylmethyl)pyrrolidin-1-yl]carbonyl}-1H-pyrrol-2-yl)methylene]-1,3-dihydro-2H-indol-2-one]
constitutive MET autophosphorylation [5]: effectively suppressed the constitutive MET autophosphorylation | induction of apoptosis [6]: induction of apoptosis; also recorded: demonstrated apoptosis | induction of apoptosis [7]: not in Amp− cells | effect on number of viable cells [8]: dramatic decrease in the number of viable cells; also recorded: dramatic reduction in cell numbers | viability at 0.5 µM [9]: 91.3 ± 2.1% | viability at 0.5 µM [10]: 105 ± 9.5% | viability at 0.5 µM [11]: 92.8 ± 2.1% | viability at 0.5 µM [12]: 87.5 ± 4% | viability at 0.5 µM [13]: 4 ± 0.2% | viability at 0.5 µM [14]: 12.8 ± 1.2% | viability at 0.5 µM [15]: 5.8 ± 0.5% | viability at 0.5 µM [16]: 3.2 ± 0.3% | viability at 0.5 µM [17]: 99.8 ± 1.9% | viability at 0.5 µM [18]: 100 ± 12.3% | viability at 0.5 µM [19]: 104 ± 4.2% | viability at 0.5 µM [20]: 89.6 ± 2.6% | viability at 0.5 µM [21]: 118 ± 21.1% | viability at 0.5 µM [22]: 38.4 ± 1.2% | viability at 0.5 µM [23]: 86 ± 7.4% | viability at 0.5 µM [24]: 101 ± 3.2% | viability at 0.5 µM [25]: 99.9 ± 1.5% | effect on proliferation rate as a function of time [26]: unaffected | Extreme sensitivity (drug concentration) [27]: 100 nM | IC50 [28]: > 10 µM | effect on proliferation as a function of time [29]: initial arrest in proliferation, followed by cell death | baseline phosphorylation of ERK1/2, AKT, STAT3, FAK [30]: no effect on baseline phosphorylation | baseline phosphorylation of downstream effectors ERK1/2, AKT, STAT3, FAK [31]: effectively abrogated the baseline phosphorylation | effect on number of viable cells / proliferation [32]: resistant; also recorded: no effect

COc1cc2ncnc(Nc3ccc(F)c(Cl)c3)c2cc1OCCCN1CCOCC1 [gefitinib]
Extreme sensitivity (drug concentration) [33]: 100 nM | drug sensitivity [34]: relatively resistant

From patent US20060246492A1, “Method for predicting responsiveness to drugs” (The General Hospital Corporation, priority 2005, published 2006)
